System: LAN-6;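 further: growth inhibition of LAN-6 cells, determined with a cell viability assay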
Experiment: cells
Type: functional, cell-based, Homo sapiens
Settings: Homo sapiens, LAN-6
Description: SANGER: Inhibition of human LAN-6 cell growth in a cell viability assay.

Structure (SMILES)	IC50
Cn1cnc2c(F)c(Nc3ccc(Br)cc3Cl)c(C(=O)NOCCO)cc21 [SELUMETINIB]	2.83 µM

System: SNB-75;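 further: cell viability assay measuring growth inhibition of human SNB-75 cells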
Experiment: cells
Type: functional, cell-based, Homo sapiens
Settings: Homo sapiens, SNB-75
Description: SANGER: Inhibition of human SNB75 cell growth in a cell viability assay.

Structure (SMILES)	IC50
Cn1cnc2c(F)c(Nc3ccc(Br)cc3Cl)c(C(=O)NOCCO)cc21 [SELUMETINIB]	> 4 µM

System: ML-2;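 further: growth inhibition of ML-2 cells, measured with a cell viability readout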
Experiment: cells
Type: functional, cell-based, Homo sapiens
Settings: Homo sapiens, ML-2
Description: SANGER: Inhibition of human ML-2 cell growth in a cell viability assay.

Structure (SMILES)	IC50
Cn1cnc2c(F)c(Nc3ccc(Br)cc3Cl)c(C(=O)NOCCO)cc21 [SELUMETINIB]	0.294 µM

System: MHH-NB-11;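 further: growth inhibition of human MHH-NB-11 cells, read out by a cell viability assay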
Experiment: cells
Type: functional, cell-based, Homo sapiens
Settings: Homo sapiens, MHH-NB-11
Description: SANGER: Inhibition of human MHH-NB-11 cell growth in a cell viability assay.

Structure (SMILES)	IC50
Cn1cnc2c(F)c(Nc3ccc(Br)cc3Cl)c(C(=O)NOCCO)cc21 [SELUMETINIB]	> 4 µM

System: LB1047-RCC;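 further: inhibition of cell growth, determined with a cell viability assay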
Experiment: cells
Type: functional, cell-based, Homo sapiens
Settings: Homo sapiens, LB1047-RCC
Description: SANGER: Inhibition of human LB1047-RCC cell growth in a cell viability assay.

Structure (SMILES)	IC50
Cn1cnc2c(F)c(Nc3ccc(Br)cc3Cl)c(C(=O)NOCCO)cc21 [SELUMETINIB]	> 4 µM

System: NB69;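 further: growth inhibition of NB69 cells, determined by a cell viability assay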
Experiment: cells
Type: functional, cell-based, Homo sapiens
Settings: Homo sapiens, NB69
Description: SANGER: Inhibition of human NB69 cell growth in a cell viability assay.

Structure (SMILES)	IC50
Cn1cnc2c(F)c(Nc3ccc(Br)cc3Cl)c(C(=O)NOCCO)cc21 [SELUMETINIB]	1.05 µM

System: VA-ES-BJ;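 further: growth inhibition of the VA-ES-BJ cell line, read out by a cell viability assay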
Experiment: cells
Type: functional, cell-based, Homo sapiens
Settings: Homo sapiens, VA-ES-BJ
Description: SANGER: Inhibition of human VA-ES-BJ cell growth in a cell viability assay.

Structure (SMILES)	IC50
Cn1cnc2c(F)c(Nc3ccc(Br)cc3Cl)c(C(=O)NOCCO)cc21 [SELUMETINIB]	> 4 µM

System: RPMI-8866
Experiment: cells
Type: functional, cell-based, Homo sapiens
Settings: Homo sapiens, RPMI-8866
Description: SANGER: Inhibition of human RPMI-8866 cell growth in a cell viability assay.

Structure (SMILES)	IC50
Cn1cnc2c(F)c(Nc3ccc(Br)cc3Cl)c(C(=O)NOCCO)cc21 [SELUMETINIB]	> 4 µM

System: ES1;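 further: growth inhibition of ES1 cells, read out with a cell viability assay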
Experiment: cells
Type: functional, cell-based, Homo sapiens
Settings: Homo sapiens, ES1
Description: SANGER: Inhibition of human ES1 cell growth in a cell viability assay.

Structure (SMILES)	IC50
Cn1cnc2c(F)c(Nc3ccc(Br)cc3Cl)c(C(=O)NOCCO)cc21 [SELUMETINIB]	> 4 µM

System: NKM-1;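 further: growth inhibition of NKM-1 cells, read out with a cell viability assay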
Experiment: cells
Type: functional, cell-based, Homo sapiens
Settings: Homo sapiens, NKM-1
Description: SANGER: Inhibition of human NKM-1 cell growth in a cell viability assay.

Structure (SMILES)	IC50
Cn1cnc2c(F)c(Nc3ccc(Br)cc3Cl)c(C(=O)NOCCO)cc21 [SELUMETINIB]	0.386 µM

System: SW872;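 further: growth inhibition of SW872 cells, read out by a viability assay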
Experiment: cells
Type: functional, cell-based, Homo sapiens
Settings: Homo sapiens, SW872
Description: SANGER: Inhibition of human SW872 cell growth in a cell viability assay.

Structure (SMILES)	IC50
Cn1cnc2c(F)c(Nc3ccc(Br)cc3Cl)c(C(=O)NOCCO)cc21 [SELUMETINIB]	1.27 µM

System: SNU1;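 further: growth inhibition of human NCI-SNU-1 cells, measured with a cell viability assay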
Experiment: cells
Type: functional, cell-based, Homo sapiens
Settings: Homo sapiens, SNU1
Description: SANGER: Inhibition of human NCI-SNU-1 cell growth in a cell viability assay.

Structure (SMILES)	IC50
Cn1cnc2c(F)c(Nc3ccc(Br)cc3Cl)c(C(=O)NOCCO)cc21 [SELUMETINIB]	1.77 µM

System: COLO-800;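 further: growth inhibition of COLO-800 cells, read out with a cell viability assay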
Experiment: cells
Type: functional, cell-based, Homo sapiens
Settings: Homo sapiens, COLO-800
Description: SANGER: Inhibition of human COLO-800 cell growth in a cell viability assay.

Structure (SMILES)	IC50
Cn1cnc2c(F)c(Nc3ccc(Br)cc3Cl)c(C(=O)NOCCO)cc21 [SELUMETINIB]	> 4 µM

System: LXF-289 cell line
Experiment: cells
Type: functional, cell-based, Homo sapiens
Settings: Homo sapiens, LXF-289
Description: SANGER: Inhibition of human LXF-289 cell growth in a cell viability assay.

Structure (SMILES)	IC50
Cn1cnc2c(F)c(Nc3ccc(Br)cc3Cl)c(C(=O)NOCCO)cc21 [SELUMETINIB]	> 4 µM

System: CTV-1;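 further: growth inhibition of the cell line, read out with a cell viability assay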
Experiment: cells
Type: functional, cell-based, Homo sapiens
Settings: Homo sapiens, CTV-1
Description: SANGER: Inhibition of human CTV-1 cell growth in a cell viability assay.

Structure (SMILES)	IC50
Cn1cnc2c(F)c(Nc3ccc(Br)cc3Cl)c(C(=O)NOCCO)cc21 [SELUMETINIB]	> 4 µM

System: A253 cell line;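 further: growth inhibition of A253 cells, read out with a cell viability assay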
Experiment: cells
Type: functional, cell-based, Homo sapiens
Settings: Homo sapiens, A253
Description: SANGER: Inhibition of human A253 cell growth in a cell viability assay.

Structure (SMILES)	IC50
Cn1cnc2c(F)c(Nc3ccc(Br)cc3Cl)c(C(=O)NOCCO)cc21 [SELUMETINIB]	> 4 µM

System: TGBC24TKB;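 further: growth inhibition of human TGBC24TKB cells, read out with a cell viability assay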
Experiment: cells
Type: functional, cell-based, Homo sapiens
Settings: Homo sapiens, TGBC24TKB
Description: SANGER: Inhibition of human TGBC24TKB cell growth in a cell viability assay.

Structure (SMILES)	IC50
Cn1cnc2c(F)c(Nc3ccc(Br)cc3Cl)c(C(=O)NOCCO)cc21 [SELUMETINIB]	> 4 µM

System: 697
Experiment: cells
Type: functional, cell-based, Homo sapiens
Settings: Homo sapiens
Description: SANGER: Inhibition of human 697 cell growth in a cell viability assay.

Structure (SMILES)	IC50
Cn1cnc2c(F)c(Nc3ccc(Br)cc3Cl)c(C(=O)NOCCO)cc21 [SELUMETINIB]	> 4 µM

System: ES7;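 further: growth inhibition of cultured human ES7 cells, read out as cell viability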
Experiment: cells
Type: functional, cell-based, Homo sapiens
Settings: Homo sapiens, ES7
Description: SANGER: Inhibition of human ES7 cell growth in a cell viability assay.

Structure (SMILES)	IC50
Cn1cnc2c(F)c(Nc3ccc(Br)cc3Cl)c(C(=O)NOCCO)cc21 [SELUMETINIB]	> 4 µM

System: TE-12;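 further: growth inhibition of TE-12 cells, read out by a cell viability assay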
Experiment: cells
Type: functional, cell-based, Homo sapiens
Settings: Homo sapiens, TE-12
Description: SANGER: Inhibition of human TE-12 cell growth in a cell viability assay.

Structure (SMILES)	IC50
Cn1cnc2c(F)c(Nc3ccc(Br)cc3Cl)c(C(=O)NOCCO)cc21 [SELUMETINIB]	> 4 µM

System: no-11;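 further: growth inhibition of human NO-11 cells, read out with a cell viability assay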
Experiment: cells
Type: functional, cell-based, Homo sapiens
Settings: Homo sapiens
Description: SANGER: Inhibition of human no-11 cell growth in a cell viability assay.

Structure (SMILES)	IC50
Cn1cnc2c(F)c(Nc3ccc(Br)cc3Cl)c(C(=O)NOCCO)cc21 [SELUMETINIB]	> 4 µM

System: MHH-PREB-1;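 further: cell viability assay measuring inhibition of proliferation of human MHH-PREB-1 cells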
Experiment: cells
Type: functional, cell-based, Homo sapiens
Settings: Homo sapiens, MHH-PREB-1
Description: SANGER: Inhibition of human MHH-PREB-1 cell growth in a cell viability assay.

Structure (SMILES)	IC50
Cn1cnc2c(F)c(Nc3ccc(Br)cc3Cl)c(C(=O)NOCCO)cc21 [SELUMETINIB]	> 4 µM

System: LS-123
Experiment: cells
Type: functional, cell-based, Homo sapiens
Settings: Homo sapiens, LS-123
Description: SANGER: Inhibition of human LS-123 cell growth in a cell viability assay.

Structure (SMILES)	IC50
Cn1cnc2c(F)c(Nc3ccc(Br)cc3Cl)c(C(=O)NOCCO)cc21 [SELUMETINIB]	3.62 µM

System: EOL1;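 further: growth inhibition of EoL-1 cells, read out by a cell viability assay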
Experiment: cells
Type: functional, cell-based, Homo sapiens
Settings: Homo sapiens, EOL1
Description: SANGER: Inhibition of human EoL-1-cell cell growth in a cell viability assay.

Structure (SMILES)	IC50
Cn1cnc2c(F)c(Nc3ccc(Br)cc3Cl)c(C(=O)NOCCO)cc21 [SELUMETINIB]	0.145 µM

System: U-266
Experiment: cells
Type: functional, cell-based, Homo sapiens
Settings: Homo sapiens, U-266
Description: SANGER: Inhibition of human U-266 cell growth in a cell viability assay.

Structure (SMILES)	IC50
Cn1cnc2c(F)c(Nc3ccc(Br)cc3Cl)c(C(=O)NOCCO)cc21 [SELUMETINIB]	0.488 µM

System: EW-18;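 further: growth inhibition of EW-18 cells, read out by a cell viability assay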
Experiment: cells
Type: functional, cell-based, Homo sapiens
Settings: Homo sapiens, EW-18
Description: SANGER: Inhibition of human EW-18 cell growth in a cell viability assay.

Structure (SMILES)	IC50
Cn1cnc2c(F)c(Nc3ccc(Br)cc3Cl)c(C(=O)NOCCO)cc21 [SELUMETINIB]	> 4 µM

System: TE-8;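 further: growth inhibition of TE-8 cells, measured with a cell viability readout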
Experiment: cells
Type: functional, cell-based, Homo sapiens
Settings: Homo sapiens, TE-8
Description: SANGER: Inhibition of human TE-8 cell growth in a cell viability assay.

Structure (SMILES)	IC50
Cn1cnc2c(F)c(Nc3ccc(Br)cc3Cl)c(C(=O)NOCCO)cc21 [SELUMETINIB]	> 4 µM

System: BB49-HNC;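 further: cell viability assay read-out, reported as inhibition of BB49-HNC cell growth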
Experiment: cells
Type: functional, cell-based, Homo sapiens
Settings: Homo sapiens, BB49-HNC
Description: SANGER: Inhibition of human BB49-HNC cell growth in a cell viability assay.

Structure (SMILES)	IC50
Cn1cnc2c(F)c(Nc3ccc(Br)cc3Cl)c(C(=O)NOCCO)cc21 [SELUMETINIB]	> 4 µM

System: CCRF-CEM;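 further: inhibition of CCRF-CEM cell growth, measured by a cell viability assay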
Experiment: cells
Type: functional, cell-based, Homo sapiens
Settings: Homo sapiens, CCRF-CEM
Description: SANGER: Inhibition of human CCRF-CEM cell growth in a cell viability assay.

Structure (SMILES)	IC50
Cn1cnc2c(F)c(Nc3ccc(Br)cc3Cl)c(C(=O)NOCCO)cc21 [SELUMETINIB]	> 4 µM

System: HDLM-2;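 further: cell viability assay measuring suppression of HDLM-2 proliferation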
Experiment: cells
Type: functional, cell-based, Homo sapiens
Settings: Homo sapiens, HDLM-2
Description: SANGER: Inhibition of human HDLM-2 cell growth in a cell viability assay.

Structure (SMILES)	IC50
Cn1cnc2c(F)c(Nc3ccc(Br)cc3Cl)c(C(=O)NOCCO)cc21 [SELUMETINIB]	> 4 µM

System: DSH1;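 further: growth inhibition of human DSH1 cells, measured with a cell viability readout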
Experiment: cells
Type: functional, cell-based, Homo sapiens
Settings: Homo sapiens, DSH1
Description: SANGER: Inhibition of human DSH1 cell growth in a cell viability assay.

Structure (SMILES)	IC50
Cn1cnc2c(F)c(Nc3ccc(Br)cc3Cl)c(C(=O)NOCCO)cc21 [SELUMETINIB]	> 4 µM

System: COLO-684
Experiment: cells
Type: functional, cell-based, Homo sapiens
Settings: Homo sapiens, COLO-684
Description: SANGER: Inhibition of human COLO-684 cell growth in a cell viability assay.

Structure (SMILES)	IC50
Cn1cnc2c(F)c(Nc3ccc(Br)cc3Cl)c(C(=O)NOCCO)cc21 [SELUMETINIB]	> 4 µM

System: SW982;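 further: growth inhibition of SW982 cells, read out with a cell viability assay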
Experiment: cells
Type: functional, cell-based, Homo sapiens
Settings: Homo sapiens, SW982
Description: SANGER: Inhibition of human SW982 cell growth in a cell viability assay.

Structure (SMILES)	IC50
Cn1cnc2c(F)c(Nc3ccc(Br)cc3Cl)c(C(=O)NOCCO)cc21 [SELUMETINIB]	> 4 µM

System: GT3TKB;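 further: growth inhibition of the cell line, read out with a cell viability assay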
Experiment: cells
Type: functional, cell-based, Homo sapiens
Settings: Homo sapiens, GT3TKB
Description: SANGER: Inhibition of human GT3TKB cell growth in a cell viability assay.

Structure (SMILES)	IC50
Cn1cnc2c(F)c(Nc3ccc(Br)cc3Cl)c(C(=O)NOCCO)cc21 [SELUMETINIB]	> 4 µM

System: ONS-76;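 further: growth inhibition of human ONS-76 cells, read out with a cell viability assay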
Experiment: cells
Type: functional, cell-based, Homo sapiens
Settings: Homo sapiens, ONS-76
Description: SANGER: Inhibition of human ONS-76 cell growth in a cell viability assay.

Structure (SMILES)	IC50
Cn1cnc2c(F)c(Nc3ccc(Br)cc3Cl)c(C(=O)NOCCO)cc21 [SELUMETINIB]	0.245 µM

System: TGBC1TKB;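 further: growth inhibition of TGBC1TKB cells, read out by a cell viability assay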
Experiment: cells
Type: functional, cell-based, Homo sapiens
Settings: Homo sapiens, TGBC1TKB
Description: SANGER: Inhibition of human TGBC1TKB cell growth in a cell viability assay.

Structure (SMILES)	IC50
Cn1cnc2c(F)c(Nc3ccc(Br)cc3Cl)c(C(=O)NOCCO)cc21 [SELUMETINIB]	> 4 µM

System: KLE;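 further: growth inhibition of human KLE cells, read out with a cell viability assay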
Experiment: cells
Type: functional, cell-based, Homo sapiens
Settings: Homo sapiens, KLE
Description: SANGER: Inhibition of human KLE cell growth in a cell viability assay.

Structure (SMILES)	IC50
Cn1cnc2c(F)c(Nc3ccc(Br)cc3Cl)c(C(=O)NOCCO)cc21 [SELUMETINIB]	> 4 µM

System: SF-126;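 further: growth inhibition of human SF126 cells, read out with a cell viability assay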
Experiment: cells
Type: functional, cell-based, Homo sapiens
Settings: Homo sapiens, SF-126
Description: SANGER: Inhibition of human SF126 cell growth in a cell viability assay.

Structure (SMILES)	IC50
Cn1cnc2c(F)c(Nc3ccc(Br)cc3Cl)c(C(=O)NOCCO)cc21 [SELUMETINIB]	> 4 µM

System: COLO-668
Experiment: cells
Type: functional, cell-based, Homo sapiens
Settings: Homo sapiens, COLO-668
Description: SANGER: Inhibition of human COLO-668 cell growth in a cell viability assay.

Structure (SMILES)	IC50
Cn1cnc2c(F)c(Nc3ccc(Br)cc3Cl)c(C(=O)NOCCO)cc21 [SELUMETINIB]	> 4 µM

System: GB-1;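 further: growth of GB-1 cells judged by a viability assay, IC50 marks the concentration inhibiting growth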
Experiment: cells
Type: functional, cell-based, Homo sapiens
Settings: Homo sapiens, GB-1
Description: SANGER: Inhibition of human GB-1 cell growth in a cell viability assay.

Structure (SMILES)	IC50
Cn1cnc2c(F)c(Nc3ccc(Br)cc3Cl)c(C(=O)NOCCO)cc21 [SELUMETINIB]	> 4 µM

System: KNS-81-FD;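 further: growth inhibition of KNS-81-FD cells, read out with a cell viability assay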
Experiment: cells
Type: functional, cell-based, Homo sapiens
Settings: Homo sapiens, KNS-81-FD
Description: SANGER: Inhibition of human KNS-81-FD cell growth in a cell viability assay.

Structure (SMILES)	IC50
Cn1cnc2c(F)c(Nc3ccc(Br)cc3Cl)c(C(=O)NOCCO)cc21 [SELUMETINIB]	> 4 µM

System: SCC-15;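 further: growth inhibition of SCC-15 cells, read out with a cell viability assay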
Experiment: cells
Type: functional, cell-based, Homo sapiens
Settings: Homo sapiens, SCC-15
Description: SANGER: Inhibition of human SCC-15 cell growth in a cell viability assay.

Structure (SMILES)	IC50
Cn1cnc2c(F)c(Nc3ccc(Br)cc3Cl)c(C(=O)NOCCO)cc21 [SELUMETINIB]	> 4 µM
